Data published in US8124637B2, “Anthra [1, 2-d]imidazole-6,11-dione derivatives, preparation method and application thereof” (National Defense Medical Center, priority 2010, dated 2012).
“Also recorded” adds a separate entry of the source. Where two headings read alike, the source gives them in different places.

What was measured:
[1] = tested on: hTERT promoter (PhTERT) expression; assay: SEAP assay (PhTERT-SEAP reporter, H1299); type: cell-based, human; conditions: for Relative SEAP activity (%): PhTERT-SEAP (H1299); for activity at 1 µM / activity at 10 µM / activity at 100 µM: Homo sapiens, NCI-H1299, PhTERT-SEAP (H1299); for activity at 1 µM: read-out: Relative SEAP activity (%); for activity at 10 µM / activity at 100 µM: read-out: Relative SEAP activity (%) (converted)
Description: H1299 were grown in RPMI 1640 media supplemented with 10% fetal bovine serum, 100 units/mL penicillin and […] streptomycin in a humidified atmosphere with 5% CO2 at 37° C. Culture media were changed every three days. To establish stable cell lines that the expression of hTERT could be monitored by a reporter system, a about 3.3 kbp DNA fragment ranging from −3338 to +1 bp of the hTERT gene (hTERT promoter, PhTERT) was subcloned upstream to a secreted alkaline phosphatase gene (SEAP) and transfected into H1299 bp electroporation. The stable clones were selected using G418. The stable clones derived from H1299 were cultured using conditions that are similar to their parental cells.
Secreted alkaline phosphatase was used as the reporter system to monitor the transcriptional activity of hTERT. Here, about 10^4 cells each were grown in 96-well plates and incubated at 37° C. for 24 hours and changed with fresh media. Varying amounts of drugs were added and cells were incubated for another 24 hours. Culture media were collected and heated at 65° C. for 10 min to inactivate heat-labile phosphatases. An equal amount of SEAP buffer (2 M diethanolamine, 1 mM MgCl2, and 20 mM L-homoarginine) was added to the media and p-nitrophenyl phosphate was added to a final concentration of 12 mM. Absorptions at 405 nm were taken, and the rate of absorption increase is determined (the increasing rate of absorbance at 405 nm was used to represent the activity of SEAP).

H1299 cells [2] = tested on: H1299 cells
in vitro = conditions: human, Relative MTT viability (%)
H1299 cells [3] = assay: MTT assay (relative cell survival), H1299; conditions: PhTERT-SEAP (H1299), 100 μM
[4] = MTT assay (relative cell survival), H1299; conditions: human, H1299 non-small cell lung cancer cells (PhTERT-SEAP), Relative MTT viability (%)
[5] = molecular target: T1, telomerase (total cell lysates of lung cancer cell line H1299) (Homo sapiens, UniProt O14746); assay: Telomere repeat amplification protocol (TRAP) assay; type: biochemical; conditions: gel; for inhibition effect/activity of telomerase (TRAP): preliminary screening at 10 μM
T1 construct: As a source of telomerase, the total cell lysates derived from lung cancer cell line H1299 cells were used; endogenous in cells; host or cells: H1299 lung cancer cells (total cell lysate)
Description: Telomerase activity was detected by a modified version of the general TRAP protocol. Telomerase products were resolved by 10% polyacrylamide gel electrophoresis and visualized by staining with SYBER Green. As a source of telomerase, the total cell lysates derived from lung cancer cell line H1299 cells were used. Protein concentration of the lysates was assayed using Bio-Rad protein assay kit using BSA standards.
In the FIGS. 3A, 3B and FIG. 4, a positive control group (P) used water that had been sterilized three times in the assay; while a negative control group (N) used RNase A (CLONTECH) (5 μL, 0.1 mg/mL) in the assay.
In the positive control group (P), due to the absence of inhibitor, the telomerase could extend the telomere, such that some longer telomere fragments could be observed; while there was not observed in the negative control group (N). In the result of TRAP assay (FIG. 3A to 3B), compounds with a concentration of 10 μM was used as the preliminary screening. In the gel, standard compound A was 1,2-diaminoanthraquinone, D was doxorubicin, and M was mitoxantrone.

T1 sequence (O14746 whole entry): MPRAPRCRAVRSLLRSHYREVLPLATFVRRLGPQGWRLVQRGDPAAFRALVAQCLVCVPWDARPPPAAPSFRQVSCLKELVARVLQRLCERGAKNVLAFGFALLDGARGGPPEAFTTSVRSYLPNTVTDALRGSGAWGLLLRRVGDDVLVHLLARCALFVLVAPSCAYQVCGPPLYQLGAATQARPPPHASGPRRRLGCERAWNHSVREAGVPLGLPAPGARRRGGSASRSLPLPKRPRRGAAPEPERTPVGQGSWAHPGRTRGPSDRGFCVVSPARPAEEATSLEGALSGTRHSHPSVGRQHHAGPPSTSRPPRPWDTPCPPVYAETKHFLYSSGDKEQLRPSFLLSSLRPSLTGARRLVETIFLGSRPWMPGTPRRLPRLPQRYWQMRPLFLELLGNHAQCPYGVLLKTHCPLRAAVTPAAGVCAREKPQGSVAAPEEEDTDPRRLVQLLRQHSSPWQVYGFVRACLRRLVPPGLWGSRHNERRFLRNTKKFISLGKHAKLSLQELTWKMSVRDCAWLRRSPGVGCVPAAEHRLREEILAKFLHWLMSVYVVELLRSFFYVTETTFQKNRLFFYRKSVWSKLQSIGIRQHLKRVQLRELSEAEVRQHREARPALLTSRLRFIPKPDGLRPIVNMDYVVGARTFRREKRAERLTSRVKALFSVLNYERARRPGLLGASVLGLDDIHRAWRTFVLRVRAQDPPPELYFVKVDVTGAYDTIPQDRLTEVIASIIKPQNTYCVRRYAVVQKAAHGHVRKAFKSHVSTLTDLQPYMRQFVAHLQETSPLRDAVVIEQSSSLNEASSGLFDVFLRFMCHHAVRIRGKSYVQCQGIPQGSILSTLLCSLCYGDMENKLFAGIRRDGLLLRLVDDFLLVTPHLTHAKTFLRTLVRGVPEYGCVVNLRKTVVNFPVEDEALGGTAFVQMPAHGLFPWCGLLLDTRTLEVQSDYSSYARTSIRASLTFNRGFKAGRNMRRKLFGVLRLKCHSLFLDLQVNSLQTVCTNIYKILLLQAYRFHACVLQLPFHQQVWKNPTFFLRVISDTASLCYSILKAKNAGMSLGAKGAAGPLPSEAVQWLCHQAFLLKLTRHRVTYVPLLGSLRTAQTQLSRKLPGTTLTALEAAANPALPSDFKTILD
T1 sequence (O60832 whole entry partner): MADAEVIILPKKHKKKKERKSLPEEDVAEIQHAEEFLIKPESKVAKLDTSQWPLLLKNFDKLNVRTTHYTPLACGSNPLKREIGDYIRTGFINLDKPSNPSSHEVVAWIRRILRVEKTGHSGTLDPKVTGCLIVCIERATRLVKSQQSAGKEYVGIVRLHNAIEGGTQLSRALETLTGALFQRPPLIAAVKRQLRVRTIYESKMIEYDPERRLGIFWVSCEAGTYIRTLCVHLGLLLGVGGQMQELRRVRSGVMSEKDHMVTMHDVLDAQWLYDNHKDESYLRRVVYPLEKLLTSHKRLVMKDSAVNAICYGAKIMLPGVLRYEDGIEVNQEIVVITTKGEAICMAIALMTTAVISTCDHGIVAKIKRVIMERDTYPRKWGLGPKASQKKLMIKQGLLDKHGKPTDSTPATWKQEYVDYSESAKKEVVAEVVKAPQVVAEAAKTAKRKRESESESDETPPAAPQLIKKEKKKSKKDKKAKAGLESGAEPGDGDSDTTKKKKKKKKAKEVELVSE
T1 sequence (Q9NX24 whole entry partner): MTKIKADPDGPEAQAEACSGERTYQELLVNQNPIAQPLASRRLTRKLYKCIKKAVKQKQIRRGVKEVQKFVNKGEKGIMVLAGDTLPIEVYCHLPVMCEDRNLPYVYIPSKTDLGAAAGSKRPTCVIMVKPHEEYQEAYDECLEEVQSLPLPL
T1 sequence (Q9NPE3 whole entry partner): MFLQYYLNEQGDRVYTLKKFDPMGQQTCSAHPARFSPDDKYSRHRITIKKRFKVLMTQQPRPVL
T1 sequence (Q9NY12 whole entry partner): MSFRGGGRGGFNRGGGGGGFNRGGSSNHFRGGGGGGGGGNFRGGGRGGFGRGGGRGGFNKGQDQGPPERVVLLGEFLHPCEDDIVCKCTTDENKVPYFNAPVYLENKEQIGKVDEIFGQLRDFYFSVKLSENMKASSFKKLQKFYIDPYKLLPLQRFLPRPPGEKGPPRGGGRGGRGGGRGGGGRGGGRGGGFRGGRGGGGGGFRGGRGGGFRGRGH

Compound | viability at 72 h, 1 µM (in vitro) [%] | activity at 1 µM ([1]; 1 μM) [%] | activity at 10 µM ([1]; 10 μM) [%] | activity at 100 µM [1] [%] | viability at 72 h, 1 µM [4] [%] | viability at 72 h, 10 µM [4] [%] | viability at 72 h, 100 µM [4] [%] | further results
CN(Cc1nc2ccc3c(c2[nH]1)C(=O)c1ccccc1C3=O)Cc1c2ccccc2cc2ccccc12 [CL11, 2-(((anthracen-10-yl)-N-methylmethanamino)methyl)-1H-anthra[1,2-d]imidazole-6,11-dione] | – | – | – | – | – | – | – | Relative SEAP activity (%) ([1]; 1 μM): 101.69 ± 5.82%; Relative SEAP activity (%) ([1]; 10 μM): 77.46 ± 6.40%; Relative MTT viability (%) (H1299 cells [2]; 1 µM): 98.03 ± 4.48%; Relative MTT viability (%) (H1299 cells [2]; 10 µM): 83.80 ± 5.64%
O=C1c2ccccc2C(=O)c2c1ccc1nc(CCN3CCN(c4ccccc4)CC3)[nH]c21 [CL37, 2-(2-(4-phenylpiperazin-1-yl)ethyl)-1H-anthra[1,2-d]imidazole-6,11-dione] | 94 ± 0.98 | 104 ± 4.96 | 92.7 | 36.6 | – | – | – | viability at 72 h, 10 µM (in vitro): 96.5%
O=C1c2c(O)ccc(O)c2C(=O)c2c(NCCNCCO)ccc(NCCNCCO)c21 [mitoxantrone, reference compound] | 23.7 ± 8.06 | 20.8 ± 1.56 | 9.92 ± 4.8 | 7.19 ± 1.59 | – | – | – | Relative MTT viability (%) (H1299 cells [2]; human, 72 h, 10 µM): −8.51 ± 1.13%; Relative MTT viability (%) (H1299 cells [2]; human, 72 h, 100 µM): −0.44 ± 1.01%
CC1CCN(Cc2nc3ccc4c(c3[nH]2)C(=O)c2ccccc2C4=O)CC1 [CL17, 2-((4-methylpiperidin-1-yl)methyl)-1H-anthra[1,2-d]imidazole-6,11-dione] | – | 102 ± 4.81 | 97.3 | 25.6 | 114 ± 3.31 | 110 | > 40 | Relative MTT viability (%) (H1299 cells [3]): 32.26 ± 2.68%
O=C1c2ccccc2C(=O)c2c1ccc1nc(CNCc3cccc(C(F)(F)F)c3)[nH]c21 [CL13, 2-((3-(trifluoromethyl)benzylamino)methyl)-1H-anthra[1,2-d]imidazole-6,11-dione] | – | 87.1 ± 2.04 | 89.5 | 4.27 | 114 ± 3.31 | 110 | > 40 | Relative MTT viability (%) (H1299 cells [3]): 32.26 ± 2.68%
O=C1c2ccccc2C(=O)c2c1ccc1nc(CCl)[nH]c21 [CL01, 2-(chloromethyl)-1H-anthra[1,2-d]imidazole-6,11-dione] | 82.3 ± 6.19 | 69.2 ± 1.89 | -0.58 ± 1.16 | 2.87 ± 1.42 | – | – | – | viability at 72 h, 10 µM (in vitro): < 50%; Relative MTT viability (%) (H1299 cells [2]; human, 72 h, 100 µM): −5.28 ± 1.13%
O=C1c2ccccc2C(=O)c2c1ccc1nc(CCCl)[nH]c21 [CL35, 2-(2-chloroethyl)-1H-anthra[1,2-d]imidazole-6,11-dione] | – | 94.7 ± 9.12 | 82.8 | 7.62 | 91.1 ± 5.56 | 85.6 | > 40 | Relative MTT viability (%) (H1299 cells [3]): 40.27 ± 1.32%
CCN1CCN(Cc2nc3ccc4c(c3[nH]2)C(=O)c2ccccc2C4=O)CC1 [CL25, 2-((4-ethylpiperazin-1-yl)methyl)-1H-anthra[1,2-d]imidazole-6,11-dione] | – | 91.8 ± 3 | 13.6 | -4.43 | 86.2 ± 5.18 | < 50 | – | inhibition effect/activity of telomerase (TRAP) [5]: more significant inhibition effect/activity of telomerase
O=C1c2ccccc2C(=O)c2c1ccc1nc(CN3CCC(CCCC4CCNCC4)CC3)[nH]c21 [CL20, 2-((4-(3-(piperidin-4-yl)propyl)piperidin-1-yl)methyl)-1H-anthra[1,2-d]imidazole-6,11-dione] | – | 96 ± 5.48 | 7.52 | 3.08 | 97 ± 4.74 | < 50 | – | telomerase inhibiting effect (TRAP) ([5]; 1 μM): telomerase inhibiting effect could be observed still; inhibition effect/activity of telomerase (TRAP) [5]: more significant inhibition effect/activity of telomerase; also recorded: highest inhibition effect/activity of telomerase
COc1cccc2c1C(=O)c1c(O)c3c(c(O)c1C2=O)C[C@@](O)(C(=O)CO)C[C@@H]3O[C@H]1C[C@H](N)[C@H](O)[C@H](C)O1 [doxorubicin, reference compound] | 17.1 ± 5.37 | 33.8 ± 3.22 | 13.6 ± 3.56 | 5.18 ± 4.01 | – | – | – | Relative MTT viability (%) (H1299 cells [2]; human, 72 h, 10 µM): −9.79 ± 2.78%; Relative MTT viability (%) (H1299 cells [2]; human, 72 h, 100 µM): −11.38 ± 4.34%
O=C1c2ccccc2C(=O)c2c1ccc1nc(CN3CCN(c4ccccc4F)CC3)[nH]c21 [CL30, 2-((4-(2-fluorophenyl)piperazin-1-yl)methyl)-1H-anthra[1,2-d]imidazole-6,11-dione] | – | 103 ± 3.44 | 78.2 | -0.29 | 88.4 ± 2.16 | 76.7 | 14.8 | –
O=C1c2ccccc2C(=O)c2c1ccc1nc(CN3CCSC3)[nH]c21 [CL23, 2-((thiazolidin-3-yl)methyl)-1H-anthra[1,2-d]imidazole-6,11-dione] | – | 106 ± 3.01 | 85.6 | 11.9 | 89.3 ± 4.79 | 75.5 | 5.18 | –
Nc1ccc2c(c1N)C(=O)c1ccccc1C2=O [1,2-diaminoanthraquinone, reference compound] | 105 ± 9.37 | 98.5 ± 11.7 | 77.3 ± 11.6 | 18.2 ± 4.45 | – | – | – | viability at 72 h, 10 µM (in vitro): 95.5 ± 3.75%; viability at 72 h, 100 µM (in vitro): 39.3 ± 8.84%
O=C1c2ccccc2C(=O)c2c1ccc1nc(CN3CCSCC3)[nH]c21 [CL22, 2-(thiomorpholinomethyl)-1H-anthra[1,2-d]imidazole-6,11-dione] | – | 115 ± 2.45 | 76.7 | 4.62 | 91.8 ± 3.61 | 77.5 | 0.93 | –
COc1cccc(N2CCN(Cc3nc4ccc5c(c4[nH]3)C(=O)c3ccccc3C5=O)CC2)c1 [CL32, 2-((4-(3-methoxyphenyl)piperazin-1-yl)methyl)-1H-anthra[1,2-d]imidazole-6,11-dione] | 81.3 ± 9.72 | 105 ± 5.64 | < 50 | 3.33 | – | – | – | viability at 72 h, 10 µM (in vitro): > 50%; viability at 72 h, 100 µM (in vitro): 23.9%
